Test results as given in patent US20100022559A1, “BISOXIMES AS FUNGICIDES” (BAYER CROPSCIENCE AG, priority 2006, published 2010).

Assay: logP determination by HPLC on a reversed-phase column (C 18), EEC Directive 79/831 Annex V.A8
Type: physicochemical
Settings: [a] acidic range, pH 2.3, 0.1% aqueous phosphoric acid and acetonitrile
Procedure: The stated logP values were determined in accordance with EEC Directive 79/831 Annex V.A8 by HPLC (high performance liquid chromatography) on a reversed-phase column (C 18). Temperature: 43° C.

logP | Structure (SMILES)
0.8^[a] | C/C(=N\OCC(C)(C)CON)c1cc(C)cc(C)n1 [XII-14]

Same assay, conditions: [b] LC-MS, acidic range, pH 2.7, 0.1% aqueous formic acid and acetonitrile

logP | Structure (SMILES)
0.8^[b] | C/C(=N\OCC(C)(C)CON)c1cc(C)cc(C)n1 [XII-14]

Same assay, conditions: [c] LC-MS, neutral range, pH 7.8, 0.001 molar aqueous ammonium bicarbonate solution and acetonitrile

logP | Structure (SMILES)
2.89^[c] | C/C(=N\OCC(C)(C)CON)c1cc(C)cc(C)n1 [XII-14]

Same assay, conditions: method marked [a] in Table 1

logP | Structure (SMILES)
5.95^[a] | CCc1cc(CC)nc(C(C)=NOCC(C)CON=C(C)c2cc(CC)cc(CC)n2)c1 (stereo not shown) [compound 574]
7.36^[a] | CC(=NOCC(C)(C)CON=C(C)c1cccc(-c2ccccc2)n1)c1cccc(-c2ccccc2)n1 [Compound 575]
4.79^[a] | CCC1=NOC(CON=C(c2cccc(C)n2)C(C)C)(CON=C(c2cccc(C)n2)C(C)C)C1 (stereo not shown) [compound 595]

Same assay, conditions: method marked [b] in Table 1

Structure (SMILES) | logP
CC(=NOCCC(C)ON=C(C)c1cc(C)cc(C)n1)c1cc(C)cc(C)n1 (stereo not shown) [Compound 558] | 2.00^[b]
CC(=NOCCCON=C(C)c1ccc(C)c(C)n1)c1cccc(C)n1 [Compound 699] | 2.53^[b]
CC1=NOC(CO/N=C(\C)c2cc(C)cc(C)n2)(CO/N=C(\C)c2cc(C)cc(C)n2)C1 [Compound 637] | 1.60^[b]

Now from value to compound:

logP | Structure (SMILES)
6.22^[b] | CCCC(=NOCC1(CON=C(CCC)c2cccc(C)n2)CC(CC(C)C)=NO1)c1cccc(C)n1 (stereo not shown) [compound 619]
2.07^[b] | CC1=NOC(CON=C(C)c2ccc(C)c(C)n2)(CON=C(C)c2ccc(C)c(C)n2)C1 (stereo not shown) [compound 626]
7.26 | C=C(CON=C(C)c1cccc(-c2ccccc2)n1)CON=C(C)c1cccc(-c2ccccc2)n1 [compound 567]
2.18^[b] | CCC(=NOc1ncnc(ON=C(C)c2cccc(C)n2)c1C)c1ncccc1C [compound 739]
1.97^[b] | C(=NOCCCON=Cc1ccccn1)c1ccccn1 [compound 666]
2.28^[b] | Cc1cccc(C=NOCC(C)CON=Cc2cccc(C)n2)n1 (stereo not shown) [compound 668]
4.17^[b] | CC(=NOCc1cccc(CON=C(C)c2cccc(C)n2)c1)c1cccc(C)n1 [compound 704]
5.84^[b] | CCC(=NOCC1(CON=C(CC)c2cccc(C)n2)CC(c2cccc(Cl)c2)=NO1)c1cccc(C)n1 (stereo not shown) [compound 613]
2.13^[b] | Cc1cc(C)nc(/C(N)=N/OCc2cccc(CO/N=C(\N)c3nc(C)cc(C)n3)c2)n1 [compound 701]

Same assay, conditions: method marked [c] in Table 1

logP | Structure (SMILES)
7.27 | C=C(CON=C(C)c1cccc(-c2ccccc2)n1)CON=C(C)c1cccc(-c2ccccc2)n1 [compound 567]
6.11^[c] | CC(=NOCCC(C)ON=C(C)c1cc(C)cc(C)n1)c1cc(C)cc(C)n1 (stereo not shown) [Compound 558]
5.33^[c] | CC(=NOCCCON=C(C)c1ccc(C)c(C)n1)c1cccc(C)n1 [Compound 699]

Same assay, conditions: method marker [a] (footnote not shown); isomer A / isomer B / isomer mixture as noted in the cell

logP | Structure (SMILES)
3.80^[a] | CCC(=NOCCCON=C(CC)c1ccc(C)c(C)n1)c1ccc(C)c(C)n1 (mixture of isomers) [Compound 236]
6.21^[a] | CCc1cccc(C(C)=NOCC(C)CON=C(C)c2cccc(CC)n2)n1 (stereo not shown) [Compound 179]
4.86^[a] | CCC(=NOCCCCON=C(CC)c1cccc(C)n1)c1cccc(C)n1 (mixture of isomers) [compound 223]
2.65^[a) | CC(=NOCC(O)(CON=C(C)c1cccc(C)n1)CON=C(C)c1cccc(C)n1)c1cccc(C)n1 (stereo not shown) [compound 221]
6.27^[a] | C=C(CON=C(CCC)c1cccc(C)n1)CON=C(CCC)c1cccc(C)n1 (mixture of isomers) [Compound 240]
7.36^[a] | CC(=NOCC(C)CON=C(C)c1cccc(Cc2ccccc2)n1)c1cccc(Cc2ccccc2)n1 (stereo not shown) [Compound 173]
1.27^[a] | CC(=NOCCCON=C(C)c1ccc(C)nc1)c1ccc(C)nc1 [compound 228]
7.36^[a] | CC(=NOCC(C)CON=C(C)c1cccc(CC(C)C)n1)c1cccc(CC(C)C)n1 (stereo not shown) [compound 172]

Same assay, conditions: method marker [b]; isomer A / isomer B / isomer mixture as noted in the cell

logP | Structure (SMILES)
2.94^[b] | CC(=NOCC(F)CON=C(C)c1cccc(C)n1)c1cccc(C)n1 (stereo not shown) [Compound 212]
5.15^[b] | C=C(CON=C(C)c1ccc(C(F)(F)F)cn1)CON=C(C)c1cccc(C)n1 [Compound 66]
1.91^[b] | CC(=NOCC(CON=C(C)c1cccc(C)n1)=NO)c1cccc(C)n1 [compound 82]
4.47^[b] | CC(=NOCCCCCCON=C(C)c1cccc(C)n1)c1cccc(C)n1 [Compound 73]
7.00^b] | C=C(CON=C(C)c1cc(C)c2ccccc2n1)CON=C(C)c1cc(C)c2ccccc2n1 [compound 160]
2.70^[b] | CC(=NOCCON=C(C)c1sc(C)nc1C)c1sc(C)nc1C [compound 53]
4.79^[b] | C=C(CON=C(C)c1cccc(C)n1)CON=C(C)c1nc2ccccc2s1 [compound 218]
2.02^[b] | C/C(=N\OCCOCOCCO/N=C(\C)c1cccc(C)n1)c1cccc(C)n1 [Compound 216]
2.91^[b] | C=C(CON=C(C)c1nc(C)cc(C)n1)CON=C(C)c1nc(C)cc(C)n1 [compound 146]
6.89^[b] | C=C(CON=C(C)c1cccc(CCC)n1)CON=C(C)c1cccc(CCC)n1 [Compound 62]

Same assay, conditions: value marked [a]

Structure (SMILES) | logP
CC(=NOCC(C)(C)CON=C(C)c1cccc(Cc2ccccc2)n1)c1cccc(C)n1 [Compound 364] | 6.47^[a]
CC(=NOCC(C)CON=C(C)c1cccc(N2CCCC2)n1)c1cccc(N2CCCC2)n1 (stereo not shown) [Compound 783] | 2.51^[a]
CC(=NOCC(C)(C)CON=C(C)c1cc(C2CC2)cc(C)n1)c1cccc(C)n1 [Compound 818] | 3.80^[a]
CC(=NOCC(C)CON=C(C)c1nc(C)c(C)cc1C)c1nc(C)c(C)cc1C (stereo not shown) [Compound 255] | 2.19^[a]
CC[Si](C)(CON=C(C)c1cccc(C)n1)CON=C(C)c1cccc(C)n1 [Compound 785] | 5.98^[a]
CC(=NOCC1(CON=C(C)c2ccc(C)c(C)n2)CC1)c1cccc(C)n1 [Compound 786] | 3.99^[a]

Next, values leading:

logP | Structure (SMILES)
4.82^[a] | Cc1ccc(C(=NOCC(C)CON=C(c2ccc(C)c(C)n2)C(C)C)C(C)C)nc1C (mixture of isomers) [compound 299]
4.62^[a] | C=C(CON=C(Cl)c1cc(C)cc(C)n1)CON=C(Cl)c1cc(C)cc(C)n1 [compound 795]
3.75^[a] (isomer A) | Cc1cccc(C(=NOCC(C)(C)CON=C(c2cccc(C)n2)C2CC2)C2CC2)n1 (single isomer, unassigned) [compound 282]
4.06^[a] | C=C(CON=C(N)c1ccc(C)c(C)n1)CON=C(Cl)c1cccc(C)n1 [compound 831]

Same assay, conditions: value marked [b]

Structure (SMILES) | logP
CC(=NOCC(C)CON=C(c1cccc(C)n1)C1CC1)c1cccc(C)n1 (stereo not shown) [Compound 429] | 3.61^[b]
COc1cc(O)nc(C(C)=NOCC(C)CON=C(C)c2nc(OC)cc(OC)n2)n1 (stereo not shown) [compound 271] | 3.05^[b]
COC(CON=C(C)c1cccc(C)n1)CON=C(C)c1cccc(C)n1 (stereo not shown) [Compound 294] | 2.22^[b]
COCc1cccc(C(C)=NOCC(C)CON=C(C)c2cccc(COC)n2)n1 (stereo not shown) [Compound 290] | 4.92^[b]
CC[Si](C)(CON=C(C)c1cccc(C)n1)CON=C(C)c1cccc(C)n1 [Compound 785] | 5.98^[b]
COc1cccc(C(C)=NOCC(C)CON=C(C)c2cccc(C)n2)c1 (stereo not shown) [Compound 495] | 4.80^[b]
CC(=NOCC1(CON=C(C)c2ccc(C)c(C)n2)CC1)c1cccc(C)n1 [Compound 786] | 3.99^[b]

Results, then the compound that gave them:

logP | Structure (SMILES)
5.59^[b] | CC(=NOCC(C)(C)CON=C(C)c1ccccc1Cl)c1cccc(C)n1 [compound 413]
4.91^b](isomer A) | CC(=NOCCCCCCON=C(c1cccc(C)n1)C(C)C)c1cccc(C)n1 (single isomer, unassigned) [compound 526]
3.89^[b] | C=C(CON=C(C)c1cccc(C)n1)CON=C(c1ccccc1)c1ncccc1C [compound 351]
3.02^[b] | CC(=NOCCCCON=C(C)c1ncccc1C)c1cccc(C)n1 [compound 451]
5.54^[b] | CC(=NOCCCCON=C(C)c1cccc(C)n1)c1cccc(Cl)c1 [compound 442]
4.07^[b] | C=C(CON=C(CC)c1nc(C)c(C)c(C)n1)CON=C(CC)c1nc(C)c(C)c(C)n1 [compound 516]
4.72^[b] | CCc1cccc(C(C)=NOCCCCON=C(C)c2cccc(C)n2)n1 [compound 329]
5.78^[b] | CC(=NOCCCCCCON=C(C)c1cc2ccccc2o1)c1cccc(C)n1 [compound 393]
2.37^[b] | C=C(CON=C(C)c1cccc(C)n1)CON=C(C)c1nccc(C)n1 [compound 510]
3.03[b] | CCOC(=O)C(C)(CON=C(C)c1nc(C)ccc1C)CON=C(C)c1nc(C)ccc1C (stereo not shown) [compound 860]
6.16^[b] | CC(=NOCCCCCCON=C(C)c1ccc(Cl)s1)c1cccc(C)n1 [compound 459]
2.37^[b] | CC(=NOCC(C)CON=C(C)c1cccc(C)n1)c1cncc(C)c1 (stereo not shown) [compound 431]
4.87^[b] (isomer B) | CCC(=NOCCCCCCON=C(C)c1cccc(C)n1)c1ncccc1C [compound 343]
4.30^[b] | C=C(CON=C(C)c1cccc(C)n1)CON=C(CC)c1cccc(C)n1 [compound 358]
2.98^[b] | C=C(CON=C(C)c1cnccn1)CON=C(C)c1cccc(C)n1 [compound 514]
7.36^[b] | COc1c(Cl)cc(C(C)=NOCC(C)CON=C(C)c2cc(Cl)c(OC)c(C)n2)nc1C (stereo not shown) [compound 839]
3.51^[b] | CC(=NOCCCCON=C(c1ccccc1)c1cccc(C)n1)c1cccc(C)n1 [compound 332]
5.42^[b] | CC(=NOCCCCCCON=C(C)c1cccc(C)n1)c1ccc2c(c1)OCO2 [compound 390]
4.91^[b] (isomer A) | C=CCCC(=NOCCCCCCON=C(C)c1cccc(C)n1)c1ncccc1C (single isomer, unassigned) [compound 523]
5.90^[b] | CC(=NOCC(C)(C)CON=C(C)c1cccc2ccccc12)c1cccc(C)n1 [compound 417]
5.52^[b] | C=C(CON=C(C)c1cccc(C)n1)CON=C(CC(C)C)c1cccc(C)n1 [compound 356]
2.76^[b] | C=C(CON=C(C)c1cc(C)ccn1)CON=C(C)c1cccc(C)n1 [compound 398]
1.43^[b] | CC(=NOCC1(CON=C(C)c2cc(C)cc(C)n2)COC(=O)N1)c1cc(C)cc(C)n1 (stereo not shown) [compound 858]

Same assay, conditions: value marked [c]

Structure (SMILES) | logP
CC(=NOCC(C)(C)CON=C(C)c1cc(C2CC2)cc(C)n1)c1cccc(C)n1 [Compound 818] | 6.57^[c]
CC[Si](C)(CON=C(C)c1cccc(C)n1)CON=C(C)c1cccc(C)n1 [Compound 785] | 6.52^[c]
CC(=NOCC1(CON=C(C)c2ccc(C)c(C)n2)CC1)c1cccc(C)n1 [Compound 786] | 5.70^[c]

More lines, now with the values ahead:

logP | Structure (SMILES)
4.72^[c] | CCOC(=O)C(C)(CON=C(C)c1nc(C)ccc1C)CON=C(C)c1nc(C)ccc1C (stereo not shown) [compound 860]
7.36^[c] | COc1c(Cl)cc(C(C)=NOCC(C)CON=C(C)c2cc(Cl)c(OC)c(C)n2)nc1C (stereo not shown) [compound 839]
3,55^[c] | CC(=NOCC1(CON=C(C)c2cc(C)cc(C)n2)COC(=O)N1)c1cc(C)cc(C)n1 (stereo not shown) [compound 858]
